Data: patent US9421209B2, “Kinase modulators” (Rhizen Pharmaceuticals SA, priority 2009, dated 2016)

Key:
P110 δ/Pi3K δ = P110 δ/Pi3K δ (Homo sapiens, UniProt O00329); experiment: Fluorescent (HTRF) determination of PI3K enzyme activity, δ isoform; type: biochemical; details: for IC50: read-out: P110 δ/Pi3K δ IC 50 nM
Source text: Assay 1: Fluorescent determination of PI3Kinase Kinase enzyme activity
Phosphoinositide 3 kinases (PI3K) belong to a class of lipid kinases that play a critical role in the regulation of several key cellular processes. The PI3K are capable of phosphorylating the 3-hydroxy position of phosphoinositols thereby generating second messengers involved in downstream signalling events. The homogenous time resolved fluorescence (HTRF) assay allows detection of 3,4,5-triphosphate (PIP3) formed as a result of phosphorylation of phosphotidylinositol 4,5-biphosphate (PIP2) by PI3K isoforms such as α, β, γ or δ.
PI3K isoform activity for α, β, γ or δ was determined using a PI3K human HTRF™ Assay Kit (Millipore, Billerica, Mass.) with modifications. All incubations were carried out at room temperature. […] After the initial incubation, 5 μl/well of 400 μM ATP was added and incubated for an additional 30 minutes. Reaction was terminated by adding 5 μl/well stop solution (Millipore, Billerica, Mass.). Five microliters of detection mix (Millipore, Billerica, Mass.) were then added to each well and was incubated for 6-18 h in the dark. […] Data were analyzed using Graphpad Prism (Graphpad software; San Diego Calif.) for IC50 determination. Percent inhibition was calculated based on the values for the blank and enzyme controls.

Chain of P110 δ/Pi3K δ (O00329 whole entry, canonical isoform): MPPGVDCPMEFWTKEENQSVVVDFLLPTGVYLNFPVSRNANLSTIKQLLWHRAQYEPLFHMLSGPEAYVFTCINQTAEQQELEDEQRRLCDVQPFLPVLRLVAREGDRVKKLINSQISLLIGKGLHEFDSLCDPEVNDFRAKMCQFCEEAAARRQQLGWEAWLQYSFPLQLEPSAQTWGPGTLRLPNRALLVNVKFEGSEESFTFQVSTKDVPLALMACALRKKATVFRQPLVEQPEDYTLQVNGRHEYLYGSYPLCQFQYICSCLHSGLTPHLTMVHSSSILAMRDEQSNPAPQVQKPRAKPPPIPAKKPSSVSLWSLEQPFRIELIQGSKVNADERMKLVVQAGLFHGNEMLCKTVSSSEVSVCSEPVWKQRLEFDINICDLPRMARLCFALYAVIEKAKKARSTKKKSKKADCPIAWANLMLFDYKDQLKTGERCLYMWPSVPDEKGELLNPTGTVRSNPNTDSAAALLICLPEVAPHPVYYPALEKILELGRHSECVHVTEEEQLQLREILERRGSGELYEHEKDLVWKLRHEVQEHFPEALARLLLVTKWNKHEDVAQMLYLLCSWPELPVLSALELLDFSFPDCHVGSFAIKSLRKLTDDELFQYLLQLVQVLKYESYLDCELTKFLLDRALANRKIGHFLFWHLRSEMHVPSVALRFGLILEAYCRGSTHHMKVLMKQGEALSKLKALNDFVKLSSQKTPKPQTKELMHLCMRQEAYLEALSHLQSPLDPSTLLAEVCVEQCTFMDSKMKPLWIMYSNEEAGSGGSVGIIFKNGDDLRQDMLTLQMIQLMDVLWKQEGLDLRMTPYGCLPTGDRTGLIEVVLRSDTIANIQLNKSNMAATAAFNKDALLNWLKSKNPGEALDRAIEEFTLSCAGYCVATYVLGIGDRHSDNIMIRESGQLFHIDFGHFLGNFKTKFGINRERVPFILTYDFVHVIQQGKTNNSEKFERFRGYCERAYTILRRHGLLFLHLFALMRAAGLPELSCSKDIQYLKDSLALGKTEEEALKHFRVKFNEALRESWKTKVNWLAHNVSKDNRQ
Chain of P110 δ/Pi3K δ (P27986 whole entry partner, canonical isoform): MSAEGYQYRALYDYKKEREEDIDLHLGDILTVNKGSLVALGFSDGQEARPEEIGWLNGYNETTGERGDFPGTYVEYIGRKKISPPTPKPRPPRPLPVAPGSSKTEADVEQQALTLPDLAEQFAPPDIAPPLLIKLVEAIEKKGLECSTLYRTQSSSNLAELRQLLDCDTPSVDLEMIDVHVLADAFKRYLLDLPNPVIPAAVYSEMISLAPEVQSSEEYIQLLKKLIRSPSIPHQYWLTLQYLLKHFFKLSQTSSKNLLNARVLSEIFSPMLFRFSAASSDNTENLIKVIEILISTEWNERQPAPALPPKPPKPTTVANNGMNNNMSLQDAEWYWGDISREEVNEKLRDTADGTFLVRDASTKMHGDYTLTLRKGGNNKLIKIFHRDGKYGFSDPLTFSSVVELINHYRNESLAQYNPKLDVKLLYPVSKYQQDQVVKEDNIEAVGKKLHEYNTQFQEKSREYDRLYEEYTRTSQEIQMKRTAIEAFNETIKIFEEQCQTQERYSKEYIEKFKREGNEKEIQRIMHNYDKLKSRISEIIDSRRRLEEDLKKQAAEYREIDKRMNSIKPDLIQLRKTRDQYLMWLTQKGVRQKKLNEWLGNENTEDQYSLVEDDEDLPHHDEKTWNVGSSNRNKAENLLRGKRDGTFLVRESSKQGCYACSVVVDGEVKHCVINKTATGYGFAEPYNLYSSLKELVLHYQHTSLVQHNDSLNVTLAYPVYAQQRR

Q: What does the source list for `Cn1c(=O)c2c(ncn2Cc2oc3ccc(Br)cc3c(=O)c2-c2ccccc2)n(C)c1=O` [Example 20, 7-[(6-Bromo-4-oxo-3-phenyl-4H-chromen-2-yl)methyl]-1,3-dimethyl-1H-purine-2,6(3H,7H)-dione]?
A: inhibition at 1 µM (P110 δ/Pi3K δ): < 50%; melting point: 253 to 255 °C

Q: With `CC(c1oc2ccc(Br)cc2c(=O)c1-c1ccccc1)n1cnc2c(N)ncnc21` (stereo not drawn) [Example 21, 2-(1-(6-Amino-9H-purin-9-yl)ethyl)-6-bromo-3-phenyl-4H-chromen-4-one] as the compound, how does the inhibition at 1 µM (P110 δ/Pi3K δ) read?
A: < 50%

Q: What about the melting point of the same compound?
A: 230 to 231 °C

Q: Which inhibition at 1 µM (P110 δ/Pi3K δ) does the source give for `CC(Sc1ncnc2[nH]cnc12)c1oc2ccc(Br)cc2c(=O)c1-c1ccccc1` (stereo not drawn) [Example 22, 2-(1-(9H-Purin-6-ylthio)ethyl)-6-bromo-3-phenyl-4H-chromen-4-one] here?
A: < 50%

Q: What about the melting point of the same compound?
A: 234 to 237 °C

Q: Which results are given for `C[C@H](Nc1ncnc2[nH]cnc12)c1oc2ccc(Br)cc2c(=O)c1-c1ccccc1` [Example 24, (S)-2-(1-(9H-purin-6-ylamino)ethyl)-6-bromo-3-phenyl-4H-chromen-4-one]?
A: inhibition at 1 µM (P110 δ/Pi3K δ): < 50%; melting point: 151 to 154 °C

Q: Which results are given for `O=c1c(-c2ccccc2)c(CNc2ncnc3[nH]cnc23)oc2ccc(Br)cc12` [Example 25, 2-((9H-purin-6-ylamino)methyl)-6-bromo-3-phenyl-4H-chromen-4-one]?
A: inhibition at 1 µM (P110 δ/Pi3K δ): < 50%; melting point: 151 to 154 °C

Q: For `CC(c1oc2ccc(Br)cc2c(=O)c1-c1ccccc1)n1ncc2c(N)ncnc21` (stereo not drawn) [Example 26, 2-(1-(4-amino-1H-pyrazolo[3,4-d]pyrimidin-1-yl)ethyl)-6-bromo-3-phenyl-4H-chromen-4-one], which inhibition at 1 µM (P110 δ/Pi3K δ) is on record?
A: < 50%

Q: And the melting point?
A: 239 to 240 °C

Q: Which results are given for `COc1ccc2oc(Cn3cnc4c(N)ncnc43)c(-c3ccccc3)c(=O)c2c1` [Example 27, 2-((6-Amino-9H-purin-9-yl)methyl)-6-methoxy-3-phenyl-4H-chromen-4-one]?
A: inhibition at 1 µM (P110 δ/Pi3K δ): < 50%; melting point: 197 to 198 °C

Q: What does the source list for `CC(c1oc2ccc(Br)cc2c(=O)c1-c1ccccc1F)n1cnc2c(N)ncnc21` (stereo not drawn) [Example 28, 2-(1-(6-Amino-9H-purin-9-yl)ethyl)-6-bromo-3-(2-fluorophenyl)-4H-chromen-4-one]?
A: inhibition at 1 µM (P110 δ/Pi3K δ): < 50%; melting point: 256 to 258 °C

Q: Which results are given for `Nc1ncnc2c1ncn2Cc1oc2ccc(Br)cc2c(=O)c1-c1ccccc1F` [Example 29, 2-((6-Amino-9H-purin-9-yl)methyl)-6-bromo-3-(2-fluorophenyl)-4H-chromen-4-one]?
A: inhibition at 1 µM (P110 δ/Pi3K δ): < 50%; melting point: 231 to 233 °C

Q: Which results are given for `CC(c1oc2ccccc2c(=O)c1-c1ccccc1)n1ncc2c(N)ncnc21` (stereo not drawn) [Example 30, 2-(1-(4-Amino-1H-pyrazolo[3,4-d]pyrimidin-1-yl)ethyl)-3-phenyl-4H-chromen-4-one]?
A: inhibition at 1 µM (P110 δ/Pi3K δ): < 50%; melting point: 226 to 227 °C

Q: With `CCC(c1oc2ccccc2c(=O)c1-c1ccccc1)n1cnc2c(N)ncnc21` (stereo not drawn) [Example 31, 2-(1-(6-Amino-9H-purin-9-yl)propyl)-3-phenyl-4H-chromen-4-one] as the compound, how does the inhibition at 1 µM (P110 δ/Pi3K δ) read?
A: 50 to 100%

Q: What about the IC50 (P110 δ/Pi3K δ) of the same compound?
A: 250 to 500 nM

Q: And the melting point?
A: 223 to 225 °C

Q: With `Nc1ncnc2c1ncn2Cc1oc2ccccc2c(=O)c1-c1ccccc1F` [Example 33, 2-((6-Amino-9H-purin-9-yl)methyl)-3-(2-fluorophenyl)-4H-chromen-4-one] as the compound, how does the inhibition at 1 µM (P110 δ/Pi3K δ) read?
A: < 50%

Q: What about the melting point of the same compound?
A: 202 to 205 °C

Q: What does the source list for `CC(c1oc2ccccc2c(=O)c1-c1ccccc1F)n1cnc2c(N)ncnc21` (stereo not drawn) [Example 34, 2-(1-(6-Amino-9H-purin-9-yl)ethyl)-3-(2-fluorophenyl)-4H-chromen-4-one]?
A: inhibition at 1 µM (P110 δ/Pi3K δ): 50 to 100%; melting point: 247 to 250 °C

Q: With `CCC(c1oc2ccccc2c(=O)c1-c1ccccc1F)n1cnc2c(N)ncnc21` (stereo not drawn) [Example 35, 2-(1-(6-Amino-9H-purin-9-yl)propyl)-3-(2-fluorophenyl)-4H-chromen-4-one] as the compound, how does the inhibition at 1 µM (P110 δ/Pi3K δ) read?
A: < 50%

Q: What about the melting point of the same compound?
A: 160 to 163 °C

Q: For `CCC(c1oc2ccccc2c(=O)c1-c1cccc(F)c1)n1cnc2c(N)ncnc21` (stereo not drawn) [Example 36, 2-(1-(6-amino-9H-purin-9-yl)propyl)-3-(3-fluorophenyl)-4H-chromen-4-one], which inhibition at 1 µM (P110 δ/Pi3K δ) is on record?
A: < 50%

Q: And the melting point?
A: 102 to 107 °C

Q: With `CCC(c1oc2ccccc2c(=O)c1-c1ccc(F)cc1)n1cnc2c(N)ncnc21` (stereo not drawn) [Example 37, 2-(1-(6-Amino-9H-purin-9-yl)propyl)-3-(4-fluorophenyl)-4H-chromen-4-one] as the compound, how does the inhibition at 1 µM (P110 δ/Pi3K δ) read?
A: < 50%

Q: And the melting point?
A: 223 to 227 °C

Q: Which results are given for `CCC(c1oc2ccc(F)cc2c(=O)c1-c1ccccc1)n1cnc2c(N)ncnc21` (stereo not drawn) [Example 38, 2-(1-(6-amino-9H-purin-9-yl)propyl)-6-fluoro-3-phenyl-4H-chromen-4-one]?
A: inhibition at 1 µM (P110 δ/Pi3K δ): < 50%; melting point: 266 to 272 °C

Q: Which inhibition at 1 µM (P110 δ/Pi3K δ) does the source give for `CC(c1oc2ccccc2c(=O)c1-c1ccc(F)cc1)n1cnc2c(N)ncnc21` (stereo not drawn) [Example 39, 2-(1-(6-Amino-9H-purin-9-yl)ethyl)-3-(4-fluorophenyl)-4H-chromen-4-one] here?
A: < 50%

Q: What about the melting point of the same compound?
A: 210 to 212 °C

Q: With `CC(c1oc2ccc(F)cc2c(=O)c1-c1ccccc1)n1cnc2c(N)ncnc21` (stereo not drawn) [Example 40, 2-(1-(6-Amino-9H-purin-9-yl)ethyl)-6-fluoro-3-phenyl-4H-chromen-4-one] as the compound, how does the inhibition at 1 µM (P110 δ/Pi3K δ) read?
A: 50 to 100%

Q: And the melting point?
A: 264 to 269 °C

Q: With `COc1cccc(-c2nn(C(C)c3oc4ccccc4c(=O)c3-c3ccccc3)c3ncnc(N)c23)c1` (stereo not drawn) [Example 41, 2-(1-(4-Amino-3-(3-methoxyphenyl)-1H-pyrazolo[3,4-d]pyrimidin-1-yl)ethyl)-3-phenyl-4H-chromen-4-one] as the compound, how does the inhibition at 1 µM (P110 δ/Pi3K δ) read?
A: 50 to 100%

Q: What about the melting point of the same compound?
A: 176 to 178 °C

Q: Which inhibition at 1 µM (P110 δ/Pi3K δ) does the source give for `O=c1c(-c2ccccc2)c(CNc2ncnc3[nH]cnc23)oc2ccccc12` [Example 43, 2-((9H-purin-6-ylamino)methyl)-3-phenyl-4H-chromen-4-one] here?
A: < 50%

Q: What about the melting point of the same compound?
A: 155 to 158 °C

Q: Which inhibition at 1 µM (P110 δ/Pi3K δ) does the source give for `Cc1ccccc1-c1c(C(C)n2cnc3c(N)ncnc32)oc2ccccc2c1=O` (stereo not drawn) [Example 44, 2-(1-(6-Amino-9H-purin-9-yl)ethyl)-3-o-tolyl-4H-chromen-4-one] here?
A: 50 to 100%

Q: What about the melting point of the same compound?
A: 202 to 205 °C

Q: With `O=c1c(-c2ccccc2F)c(CNc2ncnc3[nH]cnc23)oc2ccccc12` [Example 45, 2-((9H-purin-6-ylamino)methyl)-3-(2-fluorophenyl)-4H-chromen-4-one] as the compound, how does the inhibition at 1 µM (P110 δ/Pi3K δ) read?
A: < 50%

Q: What about the melting point of the same compound?
A: 143 to 147 °C

Q: With `O=c1c(-c2cccc(F)c2)c(CNc2ncnc3[nH]cnc23)oc2ccccc12` [Example 46, 2-((9H-purin-6-ylamino)methyl)-3-(3-fluorophenyl)-4H-chromen-4-one] as the compound, how does the inhibition at 1 µM (P110 δ/Pi3K δ) read?
A: < 50%

Q: And the melting point?
A: 211 to 214 °C

Q: Which results are given for `CC(c1oc2ccc(F)cc2c(=O)c1-c1ccccc1F)n1cnc2c(N)ncnc21` (stereo not drawn) [Example 48, 2-(1-(6-amino-9H-purin-9-yl)ethyl)-6-fluoro-3-(2-fluorophenyl)-4H-chromen-4-one]?
A: inhibition at 1 µM (P110 δ/Pi3K δ): < 50%; melting point: 245 to 248 °C

Q: What does the source list for `CC(c1oc2ccccc2c(=O)c1-c1cc(F)cc(F)c1)n1cnc2c(N)ncnc21` (stereo not drawn) [Example 49, 2-(1-(6-Amino-9H-purin-9-yl)ethyl)-3-(3,5-difluorophenyl)-4H-chromen-4-one]?
A: inhibition at 1 µM (P110 δ/Pi3K δ): < 50%; melting point: 267 to 269 °C

Q: Which inhibition at 1 µM (P110 δ/Pi3K δ) does the source give for `CC(c1oc2ccc(F)cc2c(=O)c1-c1cccc(F)c1)n1cnc2c(N)ncnc21` (stereo not drawn) [Example 50, 2-(1-(6-amino-9H-purin-9-yl)ethyl)-6-fluoro-3-(3-fluorophenyl)-4H-chromen-4-one] here?
A: 50 to 100%

Q: And the melting point?
A: 252 to 255 °C

Q: Which inhibition at 1 µM (P110 δ/Pi3K δ) does the source give for `CC(c1oc2ccccc2c(=O)c1-c1cccc(F)c1)n1nc(-c2cccc(O)c2)c2c(N)ncnc21` (stereo not drawn) [Example 51a, 2-(1-(4-amino-3-(3-hydroxyphenyl)-1H-pyrazolo[3,4-d]pyrimidin-1-yl)ethyl)-3-(3-fluorophenyl)-4H-chromen-4-one] here?
A: 50 to 100%

Q: What about the IC50 (P110 δ/Pi3K δ) of the same compound?
A: < 250 nM

Q: What about the melting point of the same compound?
A: 282 to 285 °C

Q: Which inhibition at 1 µM (P110 δ/Pi3K δ) does the source give for `COc1cccc(-c2nn(Cc3oc4ccccc4c(=O)c3-c3ccccc3)c3ncnc(N)c23)c1` [Example 52, 2-((4-Amino-3-(3-methoxyphenyl)-1H-pyrazolo[3,4-d]pyrimidin-1-yl)methyl)-3-phenyl-4H-chromen-4-one] here?
A: < 50%

Q: What about the melting point of the same compound?
A: 111 to 115 °C

Q: For `COc1cccc(-c2nn(Cc3oc4ccccc4c(=O)c3-c3cccc(F)c3)c3ncnc(N)c23)c1` [Example 54, 2-((4-amino-3-(3-methoxyphenyl)-1H-pyrazolo[3,4-d]pyrimidin-1-yl)methyl)-3-(3-fluorophenyl)-4H-chromen-4-one], which inhibition at 1 µM (P110 δ/Pi3K δ) is on record?
A: < 50%

Q: And the melting point?
A: 175 to 178 °C

Q: With `C[C@@H](Nc1ncnc2[nH]cnc12)c1oc2ccccc2c(=O)c1-c1cccc(F)c1` [Example 56, (R)-2-(1-(9H-purin-6-ylamino)ethyl)-3-(3-fluorophenyl)-4H-chromen-4-one] as the compound, how does the inhibition at 1 µM (P110 δ/Pi3K δ) read?
A: < 50%

Q: And the melting point?
A: 274 to 276 °C

Q: Which results are given for `Nc1ncnc2c1c(-c1cccnc1)nn2Cc1oc2ccccc2c(=O)c1-c1ccccc1` [Example 58, 2-((4-amino-3-(pyridin-3-yl)-1H-pyrazolo[3,4-d]pyrimidin-1-yl)methyl)-3-phenyl-4H-chromen-4-one]?
A: inhibition at 1 µM (P110 δ/Pi3K δ): < 50%; melting point: 253 to 255 °C
